The values below come from paper PMC2932887 (Journal of medicinal chemistry, 2010).

Read-outs that look alike come from different tables or passages of the source.

In assay [1] the target is T1, recombinant rat NAAA (Rattus norvegicus, UniProt Q5KTC7).
T1 sequence (Q5KTC7 131-362 limits assumed): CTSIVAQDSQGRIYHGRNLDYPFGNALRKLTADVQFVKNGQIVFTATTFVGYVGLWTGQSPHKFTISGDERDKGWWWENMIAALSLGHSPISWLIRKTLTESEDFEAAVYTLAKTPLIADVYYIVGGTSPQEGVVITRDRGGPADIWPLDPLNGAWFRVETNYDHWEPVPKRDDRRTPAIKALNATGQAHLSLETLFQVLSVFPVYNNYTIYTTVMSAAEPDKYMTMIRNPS
T1 sequence (Q5KTC7 34-130 partner limits assumed): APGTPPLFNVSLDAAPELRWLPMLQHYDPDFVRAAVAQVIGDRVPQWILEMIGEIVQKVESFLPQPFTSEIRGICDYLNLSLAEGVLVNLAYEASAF
The experiment in a line: NAAA assay: inhibition of heptadecenoylethanolamide hydrolysis. It is filed as biochemical. The note with it: for NAAA inhibitory activity (in words): recombinant rat NAAA.

Assay [2] has as its target T1, recombinant rat NAAA. Particulars: intracellular NAAA activity; cited from earlier work.
The test system of the next assay is FAAH. The note with it: cited from earlier work.
For another assay, the system named is monoacylglycerol lipase. Particulars: cited from earlier work.
In assay [3] the test system is diacylglycerol lipase type-α. The note with it: cited from earlier work.
The target of assay [4] is T2, Recombinant NAAA expressed in HEK-293 Cells (Rattus norvegicus, UniProt Q5KTC7).
T2 sequence (Q5KTC7 131-362 limits assumed): T1 sequence (Q5KTC7 131-362 limits assumed)
T2 sequence (Q5KTC7 34-130 partner limits assumed): T1 sequence (Q5KTC7 34-130 partner limits assumed)
Kind of assay: Michaelis-Menten analysis of NAAA in presence of inhibitor. It is filed as biochemical.

As to `O=C1OCC1CCCCc1ccccc1` (racemic) [compound 23, rac-3-(4-Phenylbutyl)oxetan-2-one], on recombinant rat NAAA [1], the “NAAA inhibitory activity (in words)” value is reported as “low potency”.
Turning to `O=C(CCc1ccccc1)N[C@H]1COC1=O` [7a, (S)-N-(2-Oxo-3-oxetanyl)-3-phenylpropionamide], on recombinant rat NAAA [2], the “mechanism of NAAA inhibition” value is on record as “non-competitive”. The “inhibition of FAAH” value in the assay on FAAH was “no inhibition”. Moreover, the “inhibition of monoacylglycerol lipase” value in the assay on monoacylglycerol lipase is “no inhibition”. In addition, the “inhibition of diacylglycerol lipase type-α” value in assay [3] is reported as “no inhibition”.
On to `O=C(N[C@H]1COC1=O)c1ccc(-c2ccccc2)cc1` [7h, (S)-N-(2-Oxo-3-oxetanyl)biphenyl-4-carboxamide], for which, at recombinant rat NAAA [1] (preincubation time-course, Michaelis-Menten analysis, overnight dialysis), the “mechanism of NAAA inhibition” value is “rapid, noncompetitive and reversible”. The Vmax in assay [4] (100 nM inhibitor) is on record as 10.8 ± 2.5 nmol/min/mg; in assay [4] (200 nM inhibitor) it was 6.2 ± 0.2 nmol/min/mg.
For the molecule `O=C(CCc1ccccc1)N[C@H]1CCOC1=O` [11a, (S)-N-(2-Oxotetrahydrofuran-3-yl)-3-phenylpropionamide], on recombinant rat NAAA [1], the “NAAA inhibitory activity (in words)” value was “entirely devoid of inhibitory activity”.
`O=C(N[C@H]1CCOC1=O)c1ccc2ccccc2c1` [11j, (S)-N-(2-Oxotetrahydrofuran-3-yl)-2-naphthamide]: the “NAAA inhibitory activity (in words)” value on recombinant rat NAAA [1] was “inactivity”.
On the same count and under the same terms, next, `C[C@H]1OC(=O)[C@H]1NC(=O)CCc1ccccc1` [20a, (2R,3S)-N-(2-Methyl-4-oxo-3-oxetanyl)-3-phenylpropionamide]: “complete loss of activity”; `O=C(CCc1ccccc1)N[C@@H](CO)C(=O)O` [compound 10, (S)-3-Hydroxy-2-(3-Phenylpropionylamino)propionic Acid]: “entirely devoid of inhibitory activity”; `O=C(CCc1ccccc1)NC1CCC1` [compound 12, N-Cyclobutyl-3-phenylpropionamide]: “entirely devoid of inhibitory activity”.
Same read-out and setting: next, `O=C(CCc1ccccc1)NC1CCC1=O` (centres unmarked) [compound 15, N-(2-Oxocyclobutyl)-3-phenylpropionamide]: “entirely devoid of inhibitory activity”.

What is called Vmax is the top rate of the reaction or transport when substrate is in excess.
